Measured values as given in patent US6620938B1, “Compounds that inhibit GRB2-SHC binding and process for preparing same” (Korea Research Institute of Bioscience and Biotechnology, priority 1999, dated 2003).
“And” between values parts separate entries of the source, which are not always exact repeats. Identical values can stand only once.

What was measured:
[1] = target: T1, Grb2-Shc binding (GST-Grb2 fusion protein, [3H]propionylated-hShc peptide) (Homo sapiens, UniProt P62993); assay: Grb2-Shc binding inhibition, scintillation proximity assay; details: SPA, competition with [3H]propionylated-hShc peptide for GST-Grb2, room temperature 30 minutes, pH 7.4; read-out: concentration required for inhibiting the Grb2-Shc binding by 50% (IC50)
T1 construct: purchased Santa Cruz Biotech Inc
T1 sequence (P62993 whole entry, the tested form may be a part): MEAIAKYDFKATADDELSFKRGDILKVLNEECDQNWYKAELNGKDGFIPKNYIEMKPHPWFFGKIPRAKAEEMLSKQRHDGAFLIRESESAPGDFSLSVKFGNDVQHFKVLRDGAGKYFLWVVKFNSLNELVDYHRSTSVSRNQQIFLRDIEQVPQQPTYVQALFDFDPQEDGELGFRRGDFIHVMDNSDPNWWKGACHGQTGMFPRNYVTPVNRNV
Procedure: The activity of the inventive compound in inhibiting Grb2-Shc binding was determined in accordance with the scintillation proximity assay method by way of measuring the extents of competitive bindings of [^3H]propionylated-hShc peptide and the inventive compound toward Grb2.
Added to a 1.5 ml eppendorf tube were 10 μl of 0.3 μg GST-Grb2 fusion protein(Santa Cruz Biotech Inc.), 10 μl of SPA PVT antibody-binding beads(Amersham Co.), 10 μl of 0.1 μ Ci [^3H]propionylated-hShc peptide(Amersham Co.), 10 μl of 6 μg anti-GST rabbit IgG(Molecular Probes) and 10 μl of a DMSO solution containing each of the compounds obtained in Example 2 and the total volume was adjusted to 200 μl using SH2 buffer solution(20 mM Tris-HCI, 250 mM NaCl and 0.1% cow serum albumin, pH 7.4). The resulting mixture(sample) was reacted at room temperature for 30 minutes. After the completion of the reaction, the Grb2-Shc binding inhibiting activity was determined by examining the extent of comparative binding of [^3H]propionylated-hShc peptides toward Grb2 proteins, expressed by a unit of count per minute(CPM), with a liquid scintillation counter. The same procedure was repeated in the absence of GST-Grb2(blank) or in the absence of any added compounds(control).
The Grb2-Shc binding inhibiting activity was then calculated in accordance with the following equation: [formula]

[2] = Solubility in solvents (physicochemical characteristics, Table 1)
Description: Based on the above-mentioned spectral data and physicochemical characteristics shown in Table 1, the structures of Compounds(I), (II) and (III) was unequivocally settled. Compounds(II) and (III) are sclerotiorine and isochromopilone, respectively, which are known compounds, while Compound(I) is a novel compound.

phospholipase A2 = details: reported in the literature; cited from earlier work

SMILES	IC50 [1]	Insoluble [2]	phospholipase A2 inhibiting activity (phospholipase A2)	Soluble ([2]; solvents in which the compound is soluble)
CCC(C)/C=C(C)/C=C/c1cc2c(cn1)=C(OC)[C@@](C)(OC(C)=O)C(=O)C=2Cl (stereo partly shown) [Compound(I)]	~6 µM and 6 µM	H2O		
CCC(C)/C=C(C)/C=C/C1=CC2=C(Cl)C(=O)[C@](C)(OC(C)=O)C(=O)C2=CO1 (stereo partly shown) [Compound(II), sclerotiorine]	~12 µM and 12 µM	H2O	phospholipase A2 inhibiting activity	
CCC(C)/C=C(C)/C=C/C1=CC2=C(Cl)C(=O)[C@](C)(O)C(OC(C)=O)C2CO1 (stereo partly shown) [Compound(III), isochromopilone IV]	~11 µM and 11 µM			CHCl3, EtOAc, and MeOH
